# Earlier results as cited in article PMC4052326, “Alterporriol-Type Dimers from the Mangrove Endophytic Fungus, Alternaria sp. (SK11), and Their MptpB Inhibitions” (Marine Drugs, 2014).
# Tested on: clinical multidrug-resistant M. tuberculosis strains
# Settings: result in words; cited from earlier work
substance,measurement,value
4-deoxybostrycin,inhibition against some clinical multidrug-resistant M. tuberculosis strains,good inhibition
